# Assay results: patent publication US20090105283A1, “3-HYDROQUINAZOLIN-4-ONE DERIVATIVES FOR USE AS STEAROYL CoA DESATURASE INHIBITORS” (priority 2007, published 2009)
# Target: T1, stearoyl-CoA desaturase (SCD) (Rattus norvegicus, UniProt P07308)
# T1 construct: The microsomes were quickly thawed and added to assay buffer so that a concentration of 0.4 mg/ml was achieved; from tissue
# T1 sequence (P07308 1-358): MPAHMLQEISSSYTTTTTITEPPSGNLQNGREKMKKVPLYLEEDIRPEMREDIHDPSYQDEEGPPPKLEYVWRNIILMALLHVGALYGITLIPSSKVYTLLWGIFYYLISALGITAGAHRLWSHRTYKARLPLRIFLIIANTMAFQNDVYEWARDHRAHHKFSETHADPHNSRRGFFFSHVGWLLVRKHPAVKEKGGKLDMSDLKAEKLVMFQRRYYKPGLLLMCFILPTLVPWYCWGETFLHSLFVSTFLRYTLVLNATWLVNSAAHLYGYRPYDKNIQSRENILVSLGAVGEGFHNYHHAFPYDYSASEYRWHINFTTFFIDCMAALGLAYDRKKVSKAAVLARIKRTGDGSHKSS
# Test: SCD assay with rat liver microsomes ([3H]stearoyl CoA, adapted from Talamo and Bloch)
# Type: biochemical
# Conditions: Table 1; rat liver microsomes 0.2 mg/ml assay final, [3H]stearoyl CoA substrate, 30 min preincubation, 45 min reaction, room temperature
# Description: Male Spraque Dawley Rats were placed on regimented fasting protocol for one week to stimulate SCD enzymatic activity. 48-hour periods were alternated between feeding and fasting to induce and down-regulate SCD activity with SCD activity being induced via carbohydrate rich diet prior to liver perfusion and collection.
# The rats were anesthetized with Isoflurane inhalation anesthetic, the liver perfused with cold phosphate buffered saline (PBS), weighed, and chilled in cold homogenization buffer (250 mM sucrose, 10 mM Tris, 1 mM EDTA, pH 7.6.
# The livers were finely minced and placed in homogenization tube. 40 mL of homogenization buffer was added to the homogenization tube and the liver homogenized and centrifuged in a pre-chilled […] for 10 min at 4° C.
# Following centrifugation, the supernatant was collected and the pellet removed and discarded. The supernatant was centrifuge at 10,000 G for 35 minutes. Following centrifugation, the supernatant was collect and the pellet discarded. The supernatant was then centrifuged in a pre-chilled 45-Ti rotor at 130,000 G (41,000 RPM) for 90 minutes at 4° C.
# The supernatant was then aspirated off and the collected microsomal pellet washed in 25 mL of Glycerol PBS (1×PBS 7.4, 20% Glycerol) and resuspended in 4-5 volumes of Glycerol PBS.
# The protein concentration of the microsomal preparation was determined by BCA assay (Pierce) and the microsomes were aliquoted and stored at −80° C.
# Biobeads were ground to a smaller size in a mortar and pestle and resuspended in 3.6% TCA. The beads were then filtered through […] mesh.
# SCD was determined in the desaturase assay buffer. This assay buffer contained 0.1 M Tris buffer, pH 7.2, 2 mM NADH, 4.8 mM ATP, 0.5 mM CoA, 4.8 mM MgCl2, and 0.1% BSA.
# 1 μl of each compound of Formula I was added to an assay plate by a low volume (0.5-10 μL) multichannel pipette. A DMSO control was also prepared. The microsomes were quickly thawed and added to assay buffer so that a concentration of 0.4 mg/ml was achieved (0.2 mg/ml assay final). 50 μl of the microsome suspension in assay buffer was then added into each well in the compound assay plate, the plate was covered, and the microsomes preincubated with the compounds for 30 minutes on the orbital shaker, 50-75 rpm, at room temperature.
# The reaction mixtures were then incubated for 45 minutes on the orbital shaker at 50-75 rpm at room temperature.
# The reaction was terminated by the addition of 10 μl of 21% trichloroacetic acid (TCA) to the reaction mixture followed incubation on the orbital shaker for 30 minutes at 50-75 rpm at room temperature followed by centrifugation for 5 minutes at 3700 rpm.
# 50 μl of a 6% Bio-Bead suspension in H2O was added to the reaction mixture and the assay plate was sealed. The Bio-Bead mixture was incubated on the orbital shaker for 1 hour, 100-150 rpm at room temperature, and then the mixture was centrifuged at 2000 g for 5 minutes to pellet the Bio-Beads.
# 25 μl of the supernatant was harvested from each well and transferred to a detection plate. 100 μl of OptiPhase SuperMix scinitillation cocktail (containing sufficient NaOH to neutralize the TCA) was added and the solutions mixed by vigorous shaking (300-400 rpm) for 5 minutes at room temperature.
row,IC50 [µM],SMILES
1,3.5,"COc1ccc(Cn2cnc3ccc(NC(=O)COC(C)=O)cc3c2=O)cc1 [C, (N-{3-[(4-methoxyphenyl)methyl]-4-oxo-3-hydroquinazolin-6-yl}carbamoyl)methyl acetate]"
2,8.22,"COc1ccc(Cn2cnc3ccc(NC(=O)CO)cc3c2=O)cc1 [CI, 2-hydroxy-N-{3-[(4-methoxyphenyl)methyl]-4-oxo(3-hydroquinazolin-6-yl)}acetamide]"
3,7.64,"CC(=O)OCC(=O)Nc1ccc2c(=O)n(Cc3ccc(F)c(F)c3)cnc2c1 [CII, (N-{3-[(3,4-difluorophenyl)methyl]-4-oxo-3-hydroquinazolin-7-yl}carbamoyl)methyl acetate]"
4,4.39,"O=C(CO)Nc1ccc2c(=O)n(Cc3ccc(F)c(F)c3)cnc2c1 [CIII, N-{3-[(3,4-difluorophenyl)methyl]-4-oxo(3-hydroquinazolin-7-yl)}-2-hydroxyacetamide]"
5,0.16,"O=C(Nc1ccc2ncn(Cc3ccc(Cl)c(Cl)c3)c(=O)c2c1)OCc1ccccc1 [I, N-{3-[(3,4-dichlorophenyl)methyl]-4-oxo(3-hydroquinazolin-6-yl)}(phenylmethoxy)carboxamide]"
6,2.41,"O=C(CCc1ccccc1)Nc1ccc2ncn(Cc3ccc(Cl)c(Cl)c3)c(=O)c2c1 [II, N-{3-[(3,4-dichlorophenyl)methyl]-4-oxo(3-hydroquinazolin-6-yl)}-3-phenylpropanamide]"
7,5.31,"CCCCCC(=O)Nc1ccc2ncn(Cc3ccc(Cl)c(Cl)c3)c(=O)c2c1 [III, N-{3-[(3,4-dichlorophenyl)methyl]-4-oxo-3-hydroquinazolin-6-yl}hexanamide]"
8,3.59,"CCCCCNC(=O)Nc1ccc2ncn(Cc3ccc(Cl)c(Cl)c3)c(=O)c2c1 [IV, N-{3-[(3,4-dichlorophenyl)methyl]-4-oxo(3-hydroquinazolin-6-yl)}(pentylamino)carboxamide]"
9,14,"CC(C)OC(=O)Nc1ccc2ncn(Cc3ccc(Cl)c(Cl)c3)c(=O)c2c1 [IX, N-{3-[(3,4-dichlorophenyl)methyl]-4-oxo(3-hydroquinazolin-6-yl)}(methylethoxy)carboxamide]"
10,1.44,"COc1ccccc1OCC(=O)Nc1ccc2c(=O)n(Cc3ccc(Cl)c(Cl)c3)cnc2c1 [L, N-{3-[(3,4-dichlorophenyl)methyl]-4-oxo(3-hydroquinazolin-7-yl)}-2-(2-methoxyphenoxy)acetamide]"
11,1.45,"O=C(COc1cccnc1)Nc1ccc2c(=O)n(Cc3ccc(Cl)c(Cl)c3)cnc2c1 [LI, N-{3-[(3,4-dichlorophenyl)methyl]-4-oxo(3-hydroquinazolin-7-yl)}-2-(3-pyridyloxy)acetamide]"
12,0.05,"O=C(Nc1ccc2c(=O)n(Cc3ccc(Cl)c(Cl)c3)cnc2c1)OCc1ccccc1 [LII, N-{3-[(3,4-dichlorophenyl)methyl]-4-oxo(3-hydroquinazolin-7-yl)}(phenylmethoxy)carboxamide]"
13,1.69,"O=C(COc1ccccc1)Nc1ccc2c(=O)n(Cc3ccc(Cl)c(Cl)c3)cnc2c1 [LIII, N-{3-[(3,4-dichlorophenyl)methyl]-4-oxo(3-hydroquinazolin-7-yl)}-2-phenoxyacetamide]"
14,2.56,"O=C(CSc1ccncc1)Nc1ccc2ncn(Cc3ccc(Cl)c(Cl)c3)c(=O)c2c1 [LIV, N-{3-[(3,4-dichlorophenyl)methyl]-4-oxo(3-hydroquinazolin-6-yl)}-2-(4-pyridylthio)acetamide]"
15,0.28,"O=C(Nc1ccc2c(=O)n(Cc3cccc(Cl)c3)cnc2c1)OCc1cccnc1 [LIX, N-{3-[(3-chlorophenyl)methyl]-4-oxo(3-hydroquinazolin-7-yl)}(3-pyridylmethoxy)carboxamide]"
16,5.42,"O=C(CSc1ncccn1)Nc1ccc2ncn(Cc3ccc(Cl)c(Cl)c3)c(=O)c2c1 [LV, N-{3-[(3,4-dichlorophenyl)methyl]-4-oxo(3-hydroquinazolin-6-yl)}-2-pyrimidin-2-ylthioacetamide]"
17,2.81,"O=C(CSc1ccc(Cl)cc1)Nc1ccc2ncn(Cc3ccc(Cl)c(Cl)c3)c(=O)c2c1 [LVI, N-{3-[(3,4-dichlorophenyl)methyl]-4-oxo(3-hydroquinazolin-6-yl)}-2-(4-chlorophenylthio)acetamide]"
18,12,"O=C(Nc1ccc2ncn(Cc3ccc(Cl)cc3)c(=O)c2c1)c1ccc(Cn2ccnc2)o1 [LVII, N-{3-[(4-chlorophenyl)methyl]-4-oxo(3-hydroquinazolin-6-yl)}[5-(imidazolylmethyl)(2-furyl)]carboxamide]"
19,0.25,"O=C(Nc1ccc2c(=O)n(Cc3cccc(Cl)c3)cnc2c1)OCc1ccccc1 [LVIII, N-{3-[(3-chlorophenyl)methyl]-4-oxo(3-hydroquinazolin-7-yl)}(phenylmethoxy)carboxamide]"
20,6.6,"O=C(CSCc1ccccc1)Nc1ccc2ncn(Cc3ccc(Cl)c(Cl)c3)c(=O)c2c1 [LX, N-{3-[(3,4-dichlorophenyl)methyl]-4-oxo(3-hydroquinazolin-6-yl)}-2-(phenylmethylthio)acetamide]"
21,0.7,"COc1ccccc1COC(=O)Nc1ccc2c(=O)n(Cc3ccc(Cl)c(Cl)c3)cnc2c1 [LXI, N-{3-[(3,4-dichlorophenyl)methyl]-4-oxo(3-hydroquinazolin-7-yl)}[(2-methoxyphenyl)methoxy]carboxamide]"
22,0.23,"O=C(CO)Nc1ccc2ncn(Cc3ccc(Cl)c(Cl)c3)c(=O)c2c1 [LXII, N-{3-[(3,4-dichlorophenyl)methyl]-4-oxo(3-hydroquinazolin-6-yl)}-2-hydroxyacetamide]"
23,0.44,"O=C(Nc1ccc2ncn(Cc3ccc(Cl)c(Cl)c3)c(=O)c2c1)OCc1ccco1 [LXIII, N-{3-[(3,4-dichlorophenyl)methyl]-4-oxo(3-hydroquinazolin-6-yl)}(2-furylmethoxy)carboxamide]"
24,0.18,"CC(=O)OCC(=O)Nc1ccc2c(=O)n(Cc3ccc(Cl)c(Cl)c3)cnc2c1 [LXIV, (N-{3-[(3,4-dichlorophenyl)methyl]-4-oxo-3-hydroquinazolin-7-yl}carbamoyl)methyl acetate]"
25,0.84,"O=C(Nc1ccc2c(=O)n(Cc3cccc(F)c3)cnc2c1)OCc1ccccc1 [LXIX, N-{3-[(3-fluorophenyl)methyl]-4-oxo(3-hydroquinazolin-7-yl)}(phenylmethoxy)carboxamide]"
26,27.1,"CC(=O)OCC(=O)Nc1ccc2c(=O)n(Cc3cccc(Cl)c3)cnc2c1 [LXV, (N-{3-[(3-chlorophenyl)methyl]-4-oxo-3-hydroquinazolin-7-yl}carbamoyl)methyl acetate]"
27,16.4,"CC(=O)OCC(=O)Nc1ccc2c(=O)n(Cc3ccc(Cl)cc3)cnc2c1 [LXVI, (N-{3-[(4-chlorophenyl)methyl]-4-oxo-3-hydroquinazolin-7-yl}carbamoyl)methyl acetate]"
28,0.88,"COCCOC(=O)Nc1ccc2c(=O)n(Cc3ccc(Cl)c(Cl)c3)cnc2c1 [LXVII, N-{3-[(3,4-dichlorophenyl)methyl]-4-oxo(3-hydroquinazolin-7-yl)}(2-methoxyethoxy)carboxamide]"
29,2.69,"O=C(CO)Nc1ccc2c(=O)n(Cc3cccc(Cl)c3)cnc2c1 [LXVIII, N-{3-[(3-chlorophenyl)methyl]-4-oxo(3-hydroquinazolin-7-yl)}-2-hydroxyacetamide]"

row,SMILES,IC50 [µM]
1,"O=C(Nc1ccc2ncn(Cc3ccc(Cl)c(Cl)c3)c(=O)c2c1)Oc1ccc(Cl)cc1 [LXX, N-{3-[(3,4-dichlorophenyl)methyl]-4-oxo(3-hydroquinazolin-6-yl)}(4-chlorophenoxy)carboxamide]",3.22
